Values of other authors in US20140315941A1, “METHOD OF REDUCING CNS AND GASTRO[…] AFFECTS ASSOCIATED WITH LONG-TERM, DEXTROMETHORPHAN/LOW-DOSE QUINIDINE COMBINATION THERAPY” (Avanir Pharmaceuticals, Inc., priority 2009, published 2014).

Columns and labels:
[1] = tested on: pain threshold in CYP2D6 extensive and poor metabolizers; settings: extensive vs poor metabolizers
[2] = some patients with Huntington's disease; DM doses eight times the maximum antitussive dose
CYP2D6 = CYP2D6 (Homo sapiens, UniProt P10635); settings: in vitro
CYP2D6, sequence (P10635 whole entry): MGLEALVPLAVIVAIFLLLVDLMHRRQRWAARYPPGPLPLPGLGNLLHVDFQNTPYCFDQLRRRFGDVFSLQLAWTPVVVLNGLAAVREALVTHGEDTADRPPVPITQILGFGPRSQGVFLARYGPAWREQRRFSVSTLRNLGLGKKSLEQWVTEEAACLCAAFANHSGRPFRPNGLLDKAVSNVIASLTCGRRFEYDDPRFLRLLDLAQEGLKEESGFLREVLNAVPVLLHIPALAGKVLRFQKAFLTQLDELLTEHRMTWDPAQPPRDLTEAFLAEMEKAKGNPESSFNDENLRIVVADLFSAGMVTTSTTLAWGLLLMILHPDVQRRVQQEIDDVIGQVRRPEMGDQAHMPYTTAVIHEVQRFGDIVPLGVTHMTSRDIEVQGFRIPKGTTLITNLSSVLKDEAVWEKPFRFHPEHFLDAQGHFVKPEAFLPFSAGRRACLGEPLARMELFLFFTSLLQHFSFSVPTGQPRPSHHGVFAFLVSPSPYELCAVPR

COc1ccc2c(c1)[C@]13CCCCC1[C@H](C2)N(C)CC3 (single isomer, unassigned; (+)) [DM, (+)-3-methoxy-N-methylmorphinan]
antinociceptive effects (increase of pain threshold) [1]: significant in poor metabolizers but not in extensive metabolizers | plasma concentrations [2]: undetectable

C=C[C@H]1C[N@@]2CC[C@H]1C[C@@H]2[C@@H](O)c1ccnc2ccc(OC)cc12 [Quinidine, quinidine]
inhibition of CYP2D6 activity (potency, words) (CYP2D6): one of the most potent
